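How tested: cells in 96-well plates exposed to compound for 48 hours at five concentrations. GI50 is the concentration that inhibits growth by half. Definition used: TGI = concentration required for complete inhibition of growth.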
What was measured:
Assay in all cases: NCI tumour cell line growth inhibition, 48 h
NCI/ADR-RES ovarian = tested on: NCI/ADR-RES ovarian
DU-145 prostate = tested on: DU-145 prostate
HCT-15 colon = tested on: HCT-15 colon
M14 melanoma = tested on: M14 melanoma
HT29 colon = tested on: HT29 colon
OVCAR-3 ovarian = tested on: OVCAR-3 ovarian
MCF7 breast = tested on: MCF7 breast
RXF 393 renal = tested on: RXF 393 renal
SW-620 colon = tested on: SW-620 colon
NCI-H460 lung = tested on: NCI-H460 lung
BT-549 breast = tested on: BT-549 breast
MALME-3M melanoma = tested on: MALME-3M melanoma
SN12C renal = tested on: SN12C renal
CAKI-1 renal = tested on: CAKI-1 renal
SF-268 CNS = tested on: SF-268 CNS
SK-MEL-5 melanoma = tested on: SK-MEL-5 melanoma
OVCAR-4 ovarian = tested on: OVCAR-4 ovarian
SR leukemia = tested on: SR leukemia
MOLT-4 leukemia = tested on: MOLT-4 leukemia
K-562 leukemia = tested on: K-562 leukemia
PC-3 prostate = tested on: PC-3 prostate
SK-MEL-2 melanoma = tested on: SK-MEL-2 melanoma
SNB-75 CNS = tested on: SNB-75 CNS
IGROV1 ovarian = tested on: IGROV1 ovarian
NCI-H23 lung = tested on: NCI-H23 lung
RPMI-8226 leukemia = tested on: RPMI-8226 leukemia
HOP-92 NSCLC = tested on: HOP-92 NSCLC
EKVX NSCLC = tested on: EKVX NSCLC
SK-MEL-28 melanoma = tested on: SK-MEL-28 melanoma
T-47D breast = tested on: T-47D breast
SF-539 CNS = tested on: SF-539 CNS
MDA-MB-231 breast = tested on: MDA-MB-231 breast
UACC-257 melanoma = tested on: UACC-257 melanoma
MDA-MB-435 = tested on: MDA-MB-435
NCI-H522 lung = tested on: NCI-H522 lung
LOX IMVI melanoma = tested on: LOX IMVI melanoma
OVCAR-5 ovarian = tested on: OVCAR-5 ovarian
U251 CNS = tested on: U251 CNS
CCRF-CEM leukemia = tested on: CCRF-CEM leukemia
HL-60(TB) leukemia = tested on: HL-60(TB) leukemia
HS 578T breast = tested on: HS 578T breast
TK-10 renal = tested on: TK-10 renal
ACHN renal = tested on: ACHN renal
SNB-19 CNS = tested on: SNB-19 CNS
HOP-62 NSCLC = tested on: HOP-62 NSCLC
UACC-62 melanoma = tested on: UACC-62 melanoma
OVCAR-8 ovarian = tested on: OVCAR-8 ovarian
A549 NSCLC = tested on: A549 NSCLC
KM12 colon = tested on: KM12 colon
HCC-2998 colon = tested on: HCC-2998 colon
786-0 renal = tested on: 786-0 renal
UO-31 renal = tested on: UO-31 renal
SF-295 CNS = tested on: SF-295 CNS
HCT-116 colon = tested on: HCT-116 colon
SK-OV-3 ovarian = tested on: SK-OV-3 ovarian
COLO 205 colon = tested on: COLO 205 colon
NCI-H226 lung = tested on: NCI-H226 lung

Structure (SMILES): C=C1CC[C@@H]2C(C)(C)[C@H](O)CC[C@@]2(C)[C@@H]1COc1ccc2ccc(=O)oc2c1
- GI50 (NCI/ADR-RES ovarian): 22.9 µM
- TGI (NCI/ADR-RES ovarian): 62.7 µM
- GI50 (DU-145 prostate): 30.1 µM
- TGI (DU-145 prostate): > 100 µM
- GI50 (HCT-15 colon): 27 µM
- TGI (HCT-15 colon): > 100 µM
- GI50 (M14 melanoma): 22.5 µM
- TGI (M14 melanoma): 55.5 µM
- GI50 (HT29 colon): 32.3 µM
- TGI (HT29 colon): > 100 µM
- GI50 (OVCAR-3 ovarian): 22.3 µM
- TGI (OVCAR-3 ovarian): 56 µM
- GI50 (MCF7 breast): 24.3 µM
- TGI (MCF7 breast): 80.8 µM
- GI50 (RXF 393 renal): 20.4 µM
- TGI (RXF 393 renal): 79.5 µM
- GI50 (SW-620 colon): 34.5 µM
- TGI (SW-620 colon): > 100 µM
- GI50 (NCI-H460 lung): 26.5 µM
- TGI (NCI-H460 lung): 71.1 µM
- GI50 (BT-549 breast): 20.6 µM
- TGI (BT-549 breast): 64.1 µM
- GI50 (MALME-3M melanoma): 20.3 µM
- TGI (MALME-3M melanoma): 64.2 µM
- GI50 (SN12C renal): 28.2 µM
- TGI (SN12C renal): > 100 µM
- GI50 (CAKI-1 renal): 23.2 µM
- TGI (CAKI-1 renal): 74.5 µM
- GI50 (SF-268 CNS): 28.4 µM
- TGI (SF-268 CNS): 90.6 µM
- GI50 (SK-MEL-5 melanoma): 17.9 µM
- TGI (SK-MEL-5 melanoma): 37 µM
- GI50 (OVCAR-4 ovarian): 17.2 µM
- TGI (OVCAR-4 ovarian): 56.6 µM
- GI50 (SR leukemia): 40 µM
- TGI (SR leukemia): > 100 µM
- GI50 (MOLT-4 leukemia): 23.9 µM
- TGI (MOLT-4 leukemia): 62 µM
- GI50 (K-562 leukemia): 26.9 µM
- TGI (K-562 leukemia): > 100 µM
- GI50 (PC-3 prostate): 19.7 µM
- TGI (PC-3 prostate): 66.3 µM
- GI50 (SK-MEL-2 melanoma): 23.9 µM
- TGI (SK-MEL-2 melanoma): 65.3 µM
- TGI (SNB-75 CNS): 46.3 µM
- GI50 (IGROV1 ovarian): 27.7 µM
- TGI (IGROV1 ovarian): > 100 µM
- GI50 (NCI-H23 lung): 24.5 µM
- TGI (NCI-H23 lung): 70.1 µM
- GI50 (RPMI-8226 leukemia): 15.6 µM
- TGI (RPMI-8226 leukemia): 51.9 µM
- GI50 (HOP-92 NSCLC): 12.5 µM
- TGI (HOP-92 NSCLC): 70.5 µM
- GI50 (EKVX NSCLC): 29 µM
- TGI (EKVX NSCLC): > 100 µM
- GI50 (SK-MEL-28 melanoma): 28.7 µM
- TGI (SK-MEL-28 melanoma): 80.6 µM
- GI50 (T-47D breast): 14.6 µM
- TGI (T-47D breast): 64.1 µM
- GI50 (SF-539 CNS): 29.9 µM
- TGI (SF-539 CNS): > 100 µM
- GI50 (MDA-MB-231 breast): 30.4 µM
- TGI (MDA-MB-231 breast): > 100 µM
- GI50 (UACC-257 melanoma): 26.9 µM
- TGI (UACC-257 melanoma): 69.5 µM
- GI50 (MDA-MB-435): 25.3 µM
- TGI (MDA-MB-435): 72.3 µM
- GI50 (NCI-H522 lung): 21.2 µM
- TGI (NCI-H522 lung): 77.4 µM
- GI50 (LOX IMVI melanoma): 23.3 µM
- TGI (LOX IMVI melanoma): 56.5 µM
- GI50 (OVCAR-5 ovarian): 38.2 µM
- TGI (OVCAR-5 ovarian): > 100 µM
- GI50 (U251 CNS): 27.5 µM
- TGI (U251 CNS): > 100 µM
- GI50 (CCRF-CEM leukemia): 28.4 µM
- TGI (CCRF-CEM leukemia): > 100 µM
- GI50 (HL-60(TB) leukemia): 24.1 µM
- TGI (HL-60(TB) leukemia): 57.6 µM
- GI50 (HS 578T breast): 25.1 µM
- TGI (HS 578T breast): 86.8 µM
- GI50 (TK-10 renal): 35.6 µM
- TGI (TK-10 renal): > 100 µM
- GI50 (ACHN renal): 31.6 µM
- TGI (ACHN renal): > 100 µM
- GI50 (SNB-19 CNS): 33.7 µM
- TGI (SNB-19 CNS): > 100 µM
- GI50 (HOP-62 NSCLC): 28.2 µM
- TGI (HOP-62 NSCLC): > 100 µM
- TGI (UACC-62 melanoma): 48.4 µM
- GI50 (OVCAR-8 ovarian): 24.2 µM
- TGI (OVCAR-8 ovarian): 71 µM
- GI50 (A549 NSCLC): 21.9 µM
- TGI (A549 NSCLC): 60 µM
- GI50 (KM12 colon): 21.1 µM
- TGI (KM12 colon): 51 µM
- GI50 (HCC-2998 colon): 42.3 µM
- TGI (HCC-2998 colon): > 100 µM
- GI50 (786-0 renal): 25 µM
- TGI (786-0 renal): 68 µM
- TGI (UO-31 renal): 38.4 µM
- GI50 (SF-295 CNS): 21.3 µM
- TGI (SF-295 CNS): 62.4 µM
- GI50 (HCT-116 colon): 26 µM
- TGI (HCT-116 colon): 81.4 µM

Structure (SMILES): O=C(C(Cl)Cl)N(O)c1ccccc1OCc1ccccc1
- TGI (NCI/ADR-RES ovarian): > 100 µM
- TGI (DU-145 prostate): 45.5 µM
- TGI (HCT-15 colon): > 100 µM
- TGI (M14 melanoma): > 100 µM
- TGI (HT29 colon): > 100 µM
- TGI (OVCAR-3 ovarian): > 100 µM
- TGI (MCF7 breast): > 100 µM
- TGI (RXF 393 renal): > 100 µM
- TGI (SW-620 colon): 68.1 µM
- TGI (NCI-H460 lung): > 100 µM
- TGI (BT-549 breast): 1.43 µM
- TGI (MALME-3M melanoma): > 100 µM
- TGI (SN12C renal): > 100 µM
- TGI (CAKI-1 renal): > 100 µM
- TGI (SF-268 CNS): > 100 µM
- TGI (OVCAR-4 ovarian): 78.9 µM
- TGI (SR leukemia): > 100 µM
- TGI (MOLT-4 leukemia): > 100 µM
- TGI (K-562 leukemia): > 100 µM
- TGI (PC-3 prostate): > 100 µM
- TGI (SK-MEL-2 melanoma): > 100 µM
- TGI (SNB-75 CNS): > 100 µM
- TGI (IGROV1 ovarian): > 100 µM
- TGI (NCI-H23 lung): > 100 µM
- TGI (RPMI-8226 leukemia): 69.2 µM
- TGI (SK-OV-3 ovarian): > 100 µM
- TGI (EKVX NSCLC): 48.8 µM
- TGI (SK-MEL-28 melanoma): > 100 µM
- TGI (T-47D breast): 51.8 µM
- TGI (SF-539 CNS): > 100 µM
- TGI (MDA-MB-231 breast): > 100 µM
- TGI (UACC-257 melanoma): 63.9 µM
- TGI (MDA-MB-435): > 100 µM
- TGI (NCI-H522 lung): 82.4 µM
- TGI (LOX IMVI melanoma): > 100 µM
- TGI (OVCAR-5 ovarian): > 100 µM
- TGI (U251 CNS): > 100 µM
- TGI (CCRF-CEM leukemia): 39 µM
- TGI (HL-60(TB) leukemia): > 100 µM
- TGI (HS 578T breast): 61.7 µM
- TGI (TK-10 renal): > 100 µM
- TGI (COLO 205 colon): 68 µM
- TGI (ACHN renal): > 100 µM
- TGI (SNB-19 CNS): > 100 µM
- TGI (HOP-62 NSCLC): > 100 µM
- TGI (NCI-H226 lung): > 100 µM
- TGI (UACC-62 melanoma): 92.2 µM
- TGI (OVCAR-8 ovarian): 63.5 µM
- TGI (A549 NSCLC): > 100 µM
- TGI (KM12 colon): > 100 µM
- TGI (HCC-2998 colon): 6.89 µM
- TGI (786-0 renal): > 100 µM
- TGI (UO-31 renal): > 100 µM
- TGI (SF-295 CNS): > 100 µM
- TGI (HCT-116 colon): > 100 µM

— PubChem BioAssay (NCI)
